Test results published in patent US6569996B1, “Antibody that specifically binds to the cadherin-5 cell adhesion recognition sequence” (Adherex Technologies, Inc., priority 1998, dated 2003).

Columns and labels:
[1] = system: MDA-MB-231 human breast cancer cells; assay: Disruption of human breast cancer cell adhesion (phase contrast microscopy); assay type: cell-based; settings: 100 μl of 10 mg/ml peptide stock added to 1 ml DMEM containing 5% serum; for cell morphology and attachment to the substratum: after 24 hours, cells express cadherin-11 (OB-cadherin) but not N-cadherin or E-cadherin
Method: MDA-MB-231 human breast cancer cells (Lombardi Cancer Research Center, Washington, D.C.) were used in these experiments. They express cadherin-11 (also known as OB-cadherin) but not N-cadherin or E-cadherin. The cells were plated (˜50.000 cells) on glass coverslips and cultured for 24 hours in DMEM containing 5% serum. Peptides (N-Ac-IFVIDDKSG-NH2 (SEQ ID NO:85) and H-IFVIDDKSG-OH (SEQ ID NO:85)) were dissolved in sterile water (10 mg/ml), and 100 μl of each peptide stock solution was added to 1 ml of DMEM containing 5% serum. Control cells had 100 μl of water added to the medium. Cells were monitored by phase contrast microscopy. After 24 hours cells were fixed in formaldehyde. […] The amino acid sequence of this peptide is identical to that which is found in the first extracellular domain of OB-cadherin.

[2] = system: Human umbilical vein endothelial cells; assay: Disruption of endothelial cell adhesion (VE-cadherin immunolabeling); assay type: cell-based
Method: Human umbilical vein endothelial cells were cultured using standard procedures (see Ichikawa et al., Amer. J. Physiol. 273 (Gastrointest. Liver Physiol. 36): […], 1997). Cells were maintained in EGM (Clonetics, San Diego, Calif.) and used at P2 for all experiments. Endothelial identity was established by Dil-LDL and factor VIII staining.
The cells were cultured on glass coverslips. Monolayers were exposed to peptides at a concentration of 75 μg/mL for 60 minutes. The cells were then fixed with 95% ethanol for 30 minutes at 4° C., followed by acetone for one minute and left to air dry at room temperature. Primary antibody for VE-cadherin (Immunotech, MarseiIles, France; 1:250) was added for one hour at 37° C. Coverslips were then washed with 0.1% milk/PBS solution three times for five minutes each. Secondary antibody (1:250), goat anti-rabbit FITC (Zymed, San Francisco, Calif.) was incubated at 37° C. for one hour. Coverslips were again washed with 0.1% milk/PBS solution three times for five minutes each. Coverslips were mounted with anti-quenching solution (1 mg/mL phenylenediamine (Sigma, St. Louis, Mo.) in 50% glycerol, 50% PBS). All photographs were taken at 400× and 1000× with exposure times of 12 seconds.

Substance	cell morphology and attachment to the substratum [1]	effect on cell adhesion ([1]; 24 hours)	activity relative to similar peptide without the N- and C-terminal functional groups ([2]; 75 μg/mL for 60 minutes, comparison with H-VFRVDAETGD-OH)	effect on endothelial cell adhesion ([2]; 75 μg/mL peptide for 60 minutes, monolayers on glass coverslips, VE-cadherin immunolabel, 400× and 1000×)
H-IFVIDDKSG-OH	remained flattened and well-attached to the substratum			
N-Ac-IFVIDDKSG-NH2	rounded up from each other and were not well-attached to the substratum	interferes with cell adhesion		
N-Ac-VFRVDAETGD-NH2			substantially greater	disrupts endothelial cell adhesion
